Assay results as given in patent publication US8871751B2, “Compositions and methods relating to nuclear hormone and steroid hormone receptors including inhibitors of estrogen receptor alpha-mediated gene expression and inhibition of breast cancer” (The Board of Trustees of the University of Illinois, priority 2008, dated 2014).
Where two headings read alike, the source gives them in different places.

Legend:
[1] = target: T1, ERα (Homo sapiens, UniProt P03372); assay: pS2 mRNA induction in MCF7ERαHA cells; format: cell-based; design: endogenous in cells; settings: 10 μM, Dox, 100 pM E2, 24 h
T1 sequence (P03372 1-595): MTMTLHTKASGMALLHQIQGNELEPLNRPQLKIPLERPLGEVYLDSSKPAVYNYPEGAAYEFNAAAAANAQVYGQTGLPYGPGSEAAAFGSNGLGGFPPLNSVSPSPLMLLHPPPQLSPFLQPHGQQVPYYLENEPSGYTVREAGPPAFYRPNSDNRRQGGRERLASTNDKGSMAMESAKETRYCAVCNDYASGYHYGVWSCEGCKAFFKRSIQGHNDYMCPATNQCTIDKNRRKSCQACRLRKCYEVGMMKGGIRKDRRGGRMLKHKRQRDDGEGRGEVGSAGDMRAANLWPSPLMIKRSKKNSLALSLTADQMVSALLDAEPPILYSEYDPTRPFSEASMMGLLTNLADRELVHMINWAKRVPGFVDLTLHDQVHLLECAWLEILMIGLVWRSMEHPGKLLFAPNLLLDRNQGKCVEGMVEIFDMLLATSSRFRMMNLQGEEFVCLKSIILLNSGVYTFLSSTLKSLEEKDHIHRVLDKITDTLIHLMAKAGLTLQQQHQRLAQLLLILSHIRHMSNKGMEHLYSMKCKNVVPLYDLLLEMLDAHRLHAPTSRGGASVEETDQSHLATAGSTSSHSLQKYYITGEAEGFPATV
Excerpt: A model for tamoxifen-resistant breast cancers that overexpress ERα is MCF7ERαHA cells, which is a tetracycline-inducible MCF-7 model in which doxycycline (Dox) induces overexpression of ERα (40,41). In contrast to MCF-7 cells, in these cells Tam and OHT are potent agonists (2,42) and OHT, which stabilizes ERα, induced proteinase inhibitor 9 (PI-9) mRNA and protein more effectively than E2 (2,43). MCF7ERαHA cells were maintained in 10% 6XCD-treated FBS (40,41). All cells were in 0.1% DMSO vehicle and contained the indicated concentrations of TPBM added at the same time as the E2 or OHT. To induce PI-9 mRNA, the cells were treated with 0.5 μg/ml doxycycline to induce ERα and ethanol vehicle, 100 pM E2 or 500 pM OHT for 24 h, mRNA was extracted and PI-9 mRNA levels were determined by quantitative RT-PCR as described (2).
Saturating E2 (100 pM, FIG. 7A) and OHT (500 pM, FIG. 7B) induced PI-9 mRNA by 150 and 500 fold, respectively. […] The less complete inhibition of PI-9 induction in the OHT-treated cells likely results from the ˜4 fold higher level of ERα after OHT treatment than after E2 treatment (FIG. 7C). The PI-9 gene is representative of the many genes that contain complex estrogen response elements including ERE half sites. To confirm that TPBM inhibits expression of an endogenous gene that contains a near consensus ERE we used the pS2 gene. […]

[2] = tested on: ZR-75 cells; assay: E2-ERα-dependent growth of ZR-75 cells (MTS); format: cell-based; settings: Homo sapiens, ZR75, 96 h, 100 pM E2, 4 days, read-out: IC50 for inhibition of E2-ERα-dependent growth of ZR-75 cells
Description: FIG. 20 illustrates further activity of TPSF in the inhibition of tamoxifen-resistant human breast cancer cells. The effects of TPSF on the E2-ERα-dependent growth of tamoxifen-resistant BT474 and ZR-75 cells were assessed. […] The cells were maintained in medium containing 10% CD-FBS (ZR-75) or 10% CD-CS (BT474) containing or lacking 100 pM E2 and the indicated concentrations of TPSF. Viable cells were measured by comparison to a standard curve of cell number versus absorbance using the MTS assay. Data represents the average of at least 4 wells. IC50 values for TPSF inhibition of cell growth were calculated by curve-fitting using Sigma Plot.
(§1) Assays for Cell Growth and Viability. Cells were maintained in the media listed above containing CD-treated serum for at least 4 days prior to the experiment. To minimize cell aggregation, MCF-7 cells were harvested in 10 mM Hepes, pH 7.4, 1 mM EDTA. Other cell lines were harvested in trypsin-EDTA. 1,000 cells were plated into each well of a 96 well plate. For slow growing ZR-75 cells, 2,000 cells were plated/well. The cells were maintained in medium containing CD-treated serum for 24 hours. At 24 hours the medium was changed and E2 and DMSO vehicle or TPSF in DMSO was added. […] After 4 days viable cells were determined using a cell viability test, Promega CellTiter 96 Aqueous One Solution Cell Proliferation Assay (MTS) (Promega, Wis.).

[3] = target: T1, ERα; assay: (ERE)3-luciferase reporter gene assay in T47D-KBluc cells; format: cell-based; design: Using a stably transfected breast cancer cell line that expresses endogenous ERα; endogenous in cells; host or cells: T47D-KBluc
[4] = tested on: MCF7ERαHA cells; assay: Growth of tamoxifen-resistant MCF7ERαHA cells (MTS); format: cell-based, human; settings: 5 μM, Dox, 1 pM E2, 4 days
Description: FIG. 19 illustrates that TPSF, but not OHT, is capable of inhibiting E2-ERα-dependent growth of tamoxifen-resistant breast cancer cells as measured in MCF7ERαHA cells. MCF7ERαHA cells were maintained for 4 days in 6× stripped CD-FBS, seeded into 12 well plates containing or lacking Dox (0.5 μg/ml), E2 (1 pM) OHT (5 μM) and TPSF (5 μM), grown for 4 days and assayed using MTS with a standard curve for cell number. Cells in ethanol and DMSO vehicle alone were set to 100%. Data represents the average of 3 experiments±SEM. The difference between the cells incubated with TPSF+E2+Dox compared to the cells in Dox, and E2 and to the cells in Dox, E2 and OHT was significant (P<0.05 using Student's two-tailed T test).
as §1, with “hours.” for “hours. At 24 hours the medium was changed and E2 and DMSO vehicle or TPSF in DMSO was added.”

[5] = tested on: MCF-7 cells; assay: E2-dependent growth of MCF-7 cells (MTS); format: cell-based, human
Description: Assays for Cell Growth and Viability. Cells were maintained in the media listed above containing CD-treated serum for at least 4 days prior to the experiment. To minimize cell aggregation, MCF-7 cells were harvested in 10 mM Hepes, pH 7.4, 1 mM EDTA. Other cell lines were harvested in trypsin-EDTA. 1,000 cells were plated into each well of a 96 well plate. For slow growing ZR-75 cells, 2,000 cells were plated/well. The cells were maintained in medium containing CD-treated serum for 24 hours. At 24 hours the medium was changed and E2 and DMSO vehicle or TPSF in DMSO was added. The medium was replaced after 2 days (except for BT474 cells whose medium was not changed). After 4 days viable cells were determined using a cell viability test, Promega CellTiter 96 Aqueous One Solution Cell Proliferation Assay (MTS) (Promega, Wis.).

Row | SMILES | reduction of induction of pS2 mRNA [1] [%] | induction of pS2 mRNA ([1]; 24±3 fold without TPBM) [fold] | IC50 [2] [nM] | IC50 ([3]; 0.2 nM E2, 24 h, read-out: IC50 for inhibition of E2-ERα-mediated (ERE)3-luciferase expression) [nM] | IC50 ([3]; 100 nM E2, 24 h, read-out: IC50 for inhibition of E2-ERα-mediated (ERE)3-luciferase expression (ERE-Luc)) [nM] | effect on E2-ERα-dependent growth of MCF7ERαHA cells [4] | effect on E2-dependent growth of MCF-7 cells ([5]; 7.5 μM) | IC50 ([5]; Homo sapiens, MCF7, 96 h, 1 pM E2, 4 days, MTS, read-out: IC50 for inhibition of E2-dependent growth of MCF-7 cells) [nM]
1 | Cn1c(=O)c2nc(CSCc3ccccc3)[nH]c2n(C)c1=O [Compound 95910, 8-Benzylsulfanylmethyl-1,3-dimethyl-3,7-dihydro-purine-2,6-dione] | 50 | 12±2 |  |  |  |  |  | 
2 | Cn1c(=S)c2[nH]c(SCCCC(=O)c3ccc(F)cc3)nc2n(C)c1=O [TPSF, Butyrophenone, p-fluoro-4-(1,2,3,6,-tetrahydro-1,3-dimethyl-2-oxo-6-thionopurin-8-ylthio)] |  |  | 900 | 400 | 700 | inhibited | completely blocked | 2000
